Patent US20070213301A1 (ACHILLION PHARMACEUTICALS, INC., priority 2006, published 2007)
pEC50: −log10 of the molar value.

tested on: HCV replicon; test: HCV replicon replication assay (NPTII ELISA); type: cell-based, Hepatitis C virus (Huh-7 cells); conditions: Hepatitis C virus, Huh-7, 72 h, inhibition of HCV replicon replication in Huh-7 HCV replicon-containing cells, three days incubation, NPT level by ELISA; read-out: EC50
Procedure, shortened: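 Huh-7 cells carrying a Bartenschlager NPTII (neo) HCV replicon, treated 3 days at 37 °C with compound, generally 6 concentrations from 10 to 0.03 micromolar, in equal DMSO across wells. NPTII level, proportional to replication, read by capture ELISA on methanol:acetone-fixed cells; interferon alpha positive control; toxicity scored visually or by MTS.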

Question: How did the pEC50 turn out when `CCCCCCCCOc1ccc(N(C(=O)C(=O)OC)c2nc(-c3ccc(F)c(F)c3)cs2)cc1` [Compound 58, methyl 2-((4-(3,4-difluorophenyl)thiazol-2-yl)(4-(octyloxy)phenyl)amino)-2-oxoacetate] was run?
Answer: The pEC50 was over 6.00.

Question: With `CCCCCCCCOc1ccc(N(CC(N)=O)c2nc(-c3ccc(OCC(N)=O)cc3)cs2)cc1` [Compound 82, 2-((4-(4-(2-amino-2-oxoethoxy)phenyl)thiazol-2-yl)(4-(octyloxy)phenyl)amino)acetamide] as the compound, how does the pEC50 read?
Answer: Its pEC50 is under 5.00.

Question: With `CCCCCOc1ccc(N(C(=O)OC)c2nc(-c3ccncc3)cs2)cc1C(F)(F)F` [Compound 36, methyl 4-(pentyloxy)-3-(trifluoromethyl)phenyl(4-(pyridin-4-yl)thiazol-2-yl)carbamate] as the compound, how does the pEC50 read?
Answer: Its pEC50 is over 6.00.

Question: With `CCCCOc1ccc(N(C(N)=O)c2nc(-c3cccnc3)cs2)cc1C(F)(F)F` [Compound 136, 1-(4-butoxy-3-(trifluoromethyl)phenyl)-1-(4-(pyridin-3-yl)thiazol-2-yl)urea] as the compound, how does the pEC50 read?
Answer: Its pEC50 is over 6.00.

Question: `CCCCCOc1ccc(N(C(=O)C2CCCCC2)c2nc(-c3cccnc3)cs2)cc1C(F)(F)F` [Compound 32, N-(4-(pentyloxy)-3-(trifluoromethyl)phenyl)-N-(4-(pyridin-3-yl)thiazol-2-yl)cyclohexanecarboxamide] was tested. Which pEC50 did it give?
Answer: The pEC50 was over 6.00.

Question: `CCCCCOc1ccc(N(C(C)=O)c2nc(-c3cccnc3)cs2)cc1F` [Compound 24, N-(3-fluoro-4-(pentyloxy)phenyl)-N-(4-(pyridin-3-yl)thiazol-2-yl)acetamide] was tested. Which pEC50 did it give?
Answer: The pEC50 was over 6.00.

Question: How did the pEC50 turn out when `CCCCCCCCOc1ccc(N(C(=O)CN(C)C)c2nc(-c3cccnc3)c(F)s2)cc1C(F)(F)F` [Compound 167, 2-(dimethylamino)-N-(5-fluoro-4-(pyridin-3-yl)thiazol-2-yl)-N-(4-(octyloxy)-3-(trifluoromethyl)phenyl)acetamide] was run?
Answer: Its pEC50 is over 6.00.
